# Measured values as given in US4602927A, “4-alkylimidazole derivatives and their use as nitrification inhibitors” (BASF Aktiengesellschaft, priority 1983, dated 1986).
# Test system: nitrification
# Test: % inhibition of nitrification in soil (ammonium sulfate remaining in loamy sandy soil, Nessler reagent, 420 nm)
# Settings: 1 ppm based on moist soil, 50% of maximum water capacity, 28 days at 21° C., 220 mg ammonium sulfate per 200 g soil, versus untreated soil
# Experimental: 220 mg of ammonium sulfate were mixed thoroughly with 200 g of a loamy sandy soil whose moisture content had been brought to 50% of the maximum water capacity. The active ingredients, dissolved in 0.2 ml of acetone, were then added in amounts of 1 ppm, based on moist soil. After careful, thorough mixing, and evaporation of the acetone, the soil samples were incubated for 28 days at 21° C., together with the controls without added active ingredient, 1 liter glass vessels covered with aluminum foil to avoid loss of water.
# 2.5 g of each of the soil samples were then introduced into 100 ml conical flasks, and 22.5 ml of a 0.1N sodium sulfate solution was added. The flask was shaken for 30 minutes, after which the mixture was filtered, and 2.5 ml samples of the soil extracts were mixed with […] of distilled water. To detect the ammonium ions still present in the soil extract, 1.25 ml of Nessler reagent were then added, and the mixture was shaken thoroughly. The color changes were then measured photometrically at a wavelength of 420 nm. The amounts of ammonium sulfate still present in the soil samples were then determined with reference to standard curves obtained by a measurement of solutions containing known amounts of ammonium sulfate. The percentage inhibition of nitrification in the treated soil samples compared with the untreated soil samples (to which only ammonium sulfate had been added) was calculated using the following formula: [formula] a=nitrification rate for ammonium sulfate b=nitrification rate for ammonium sulfate+nitrification inhibitor
row,Structure (SMILES),% inhibition of nitrification 4 weeks after the addition of 1 ppm of active ingredient to the soil
1,"Cc1ccn(C(=O)NOc2ccccc2)n1 [A, 1-phenoxycarbamyl-3-methylpyrazole, reference compound]",69%
2,"CNC(=O)n1cnc(C)c1Cl [Example 1, 1-N-methylcarbamyl-4-methyl-5-chloroimidazole]",94%
3,"Cc1ncn(C(=O)Nc2ccccc2)c1Cl [Example 3, 1-N-phenylcarbamyl-4-methyl-5-chloroimidazole]",85%
4,"Cc1ncn(C(=O)Nc2ccc(Cl)c(Cl)c2)c1Cl [Example 4, 1-N-(3,4-dichlorophenyl)-carbamyl-4-methyl-5-chloroimidazole]",71%
